# From PubChem BioAssay (NCI)
#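 Growth conditions: 96-well plates. Treatment: test compound, 48 hours, 5 concentrations. Analysis: linear interpolation between bracketing concentrations; unreached endpoints set to highest concentration. TGI: total growth inhibition.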
# Legend:
# Assay in all cases: NCI-60 cell line screen, 48 h
# DLD-1 colon = test system: DLD-1 colon
# DMS 114 small cell lung = test system: DMS 114 small cell lung
# DMS 273 small cell lung = test system: DMS 273 small cell lung
# HOP-18 NSCLC = test system: HOP-18 NSCLC
# KM20L2 colon = test system: KM20L2 colon
# LXFL 529 NSCLC = test system: LXFL 529 NSCLC
# M19-MEL melanoma = test system: M19-MEL melanoma
# SNB-78 CNS = test system: SNB-78 CNS
# XF 498 CNS = test system: XF 498 CNS
# BT-549 breast = test system: BT-549 breast
# HS 578T breast = test system: HS 578T breast
# RXF-631 renal = test system: RXF-631 renal
structure (smiles),measurement,setting,value
COc1ccc(/C(Cl)=C/c2ccc(Cl)c(Cl)c2)cc1,TGI,DLD-1 colon,> 100 µM
same,TGI,DMS 114 small cell lung,43.8 µM
same,TGI,DMS 273 small cell lung,67.5 µM
same,TGI,HOP-18 NSCLC,88.9 µM
same,TGI,KM20L2 colon,63.7 µM
same,TGI,LXFL 529 NSCLC,> 100 µM
same,TGI,M19-MEL melanoma,> 100 µM
same,TGI,SNB-78 CNS,72.1 µM
same,TGI,XF 498 CNS,44.3 µM
Nc1cnc2c(c1)c(=O)nc1n2CCS1,TGI,BT-549 breast,> 100 µM
CCCCCCCCCC(=O)CC(=O)c1c(O)cc(O)cc1O,TGI,HS 578T breast,44.9 µM
N#C/C(=C\c1ccc(O)cc1O)C(N)=O,TGI,DLD-1 colon,> 100 µM
same,TGI,DMS 273 small cell lung,> 100 µM
same,TGI,KM20L2 colon,> 100 µM
same,TGI,LXFL 529 NSCLC,> 100 µM
same,TGI,M19-MEL melanoma,> 100 µM
same,TGI,SNB-78 CNS,> 100 µM
same,TGI,XF 498 CNS,> 100 µM
Cn1c(N)c(-c2c3ccccc3nc3ccccc23)c(=O)n(C)c1=O,TGI,DMS 114 small cell lung,> 100 µM
same,TGI,HOP-18 NSCLC,> 100 µM
same,TGI,KM20L2 colon,> 100 µM
same,TGI,LXFL 529 NSCLC,> 100 µM
same,TGI,M19-MEL melanoma,> 100 µM
COc1ccc(-n2c(=O)n(C)c(=O)n2-c2c(C)c(C)c(C)c(C)c2C)cc1,TGI,BT-549 breast,> 100 µM
same,TGI,HS 578T breast,> 100 µM
CN(CC#N)C(=O)Cc1ccc([N+](=O)[O-])cc1,TGI,BT-549 breast,> 10 µM
same,TGI,HS 578T breast,> 10 µM
CC(=O)O/C=C\OC1CCCC1,TGI,HS 578T breast,> 100 µM
CCOC(=O)c1c(N2CCOCC2)[nH]c(=O)c(C(c2ccc(Cl)c([N+](=O)[O-])c2)c2c(O)c(C(=O)OCC)c(N3CCOCC3)[nH]c2=O)c1O,TGI,BT-549 breast,75.1 µM
same,TGI,HS 578T breast,> 100 µM
COP(=O)(C(/C=C/c1ccccc1)OC(C)=O)[C@@H]1CCCC[C@H]1N(CC(C)(C)C)C(C)=O (some centres not stated),TGI,BT-549 breast,33 µM
same,TGI,HS 578T breast,31.1 µM
Nc1ccc(C(=O)NN2C(=O)C(Cl)C2c2cccc([N+](=O)[O-])c2)cc1 (configuration not stated),TGI,DLD-1 colon,34.7 µM
same,TGI,DMS 114 small cell lung,36.5 µM
same,TGI,DMS 273 small cell lung,32.5 µM
same,TGI,KM20L2 colon,43.6 µM
same,TGI,LXFL 529 NSCLC,34.9 µM
same,TGI,M19-MEL melanoma,34.1 µM
same,TGI,SNB-78 CNS,> 100 µM
same,TGI,XF 498 CNS,26.5 µM
CC1C(=O)C23OC[C@@]1(C)C1(O)CC[C@@H](C)[C@]21CC3=O (some centres not stated),TGI,BT-549 breast,> 100 µM
same,TGI,HS 578T breast,> 100 µM
CCCCCC(=O)Cc1cc(OC)cc2c1C(=O)Oc1cc(O)c(C(=O)O)c(CC(=O)CCCCC)c1O2,TGI,DLD-1 colon,> 100 µM
same,TGI,DMS 114 small cell lung,> 100 µM
same,TGI,DMS 273 small cell lung,> 100 µM
same,TGI,KM20L2 colon,> 100 µM
same,TGI,LXFL 529 NSCLC,> 100 µM
same,TGI,M19-MEL melanoma,69.6 µM
same,TGI,RXF-631 renal,> 100 µM
same,TGI,SNB-78 CNS,> 100 µM
same,TGI,XF 498 CNS,> 100 µM
Cc1cc(=O)[nH]c2c3c(ccc12)OC(C)(C)C=C3,TGI,BT-549 breast,> 100 µM
same,TGI,HS 578T breast,32.8 µM
CNC(=O)OCCN1c2ccccc2Sc2ccccc21,TGI,BT-549 breast,> 100 µM
same,TGI,HS 578T breast,> 100 µM
CN(C)/C=N/S(=O)(=O)c1nn2c(C=O)c(-c3ccc([N+](=O)[O-])cc3)nc2s1,TGI,BT-549 breast,25.5 µM
same,TGI,HS 578T breast,> 71.8 µM
CC1(C)O[C@@H](CP(c2ccccc2)c2ccccc2)[C@H](CP(c2ccccc2)c2ccccc2)O1,TGI,BT-549 breast,9.02 µM
NC(=O)C(=CN1CC(=O)NC1=S)C(N)=O,TGI,BT-549 breast,> 100 µM
COc1ccccc1OC(=O)/C=C/c1ccccc1,TGI,BT-549 breast,> 100 µM
same,TGI,HS 578T breast,> 100 µM
CCCCOc1ccc(S(=O)(=O)/N=C(\NN)Nc2ccc(Cl)cc2)cc1,TGI,BT-549 breast,> 100 µM
CCOC(=O)CCC(NC(=O)c1ccc(Oc2nc3ccccc3nc2C(=O)OCC)cc1)C(=O)OCC (configuration not stated),TGI,BT-549 breast,> 100 µM
same,TGI,HS 578T breast,> 100 µM
CC(C)c1cccc(C(C)C)c1NC1=CC(=O)C(=O)c2ccccc21,TGI,DLD-1 colon,> 100 µM
same,TGI,DMS 273 small cell lung,> 100 µM
same,TGI,HOP-18 NSCLC,> 100 µM
same,TGI,KM20L2 colon,> 100 µM
same,TGI,LXFL 529 NSCLC,> 100 µM
same,TGI,M19-MEL melanoma,43.1 µM
same,TGI,RXF-631 renal,> 100 µM
same,TGI,SNB-78 CNS,> 100 µM
